Assay results reported in PubChem BioAssay AID1053172 (The Scripps Research Institute Molecular Screening Center, 2014).
Calls of active or inactive are those of the source. How the calls were made is not given here.

Biological target: HIV-1 integrase / human LEDGF/p75 complex
Assay: inhibitors of HIV-1 IN-LEDGF/p75 DNA integration, dose response, biochemical, TR-FRET (AID 1053172)

Structure (SMILES) | IC50
Cc1cc(=O)n2[nH]c(-c3ccsc3-n3c(C)ccc3C)cc2n1 | inactive
O=C(O)CC(CCc1ccccc1)OC1OC(CO)C(O)C(O)C1O (centres undefined) | 0.62 µM
CN=c1scc(C)n1/N=C/c1ccc(O)c(O)c1O | 4.74 µM
O=C(O)c1ccc(-n2cccc2/C=C2/SC(=O)N(CC(=O)N3CCCC3)C2=O)cc1 | 2.46 µM
